Measurements published in patent US12521393B2, “Cytotoxicity targeting chimeras for CCR2-expressing cells” (GLAXOSMITHKLINE INTELLECTUAL PROPERTY DEVELOPMENT LIMITED, priority 2021, dated 2026).

What was measured:
[1] = target: anti-cotinine antibody (SEQ ID NO: 11/12, rabbit variable region with human IgG1 Fc DE mutation); test: SPR binding of anti-cotinine antibody to ARM compounds, Biacore T200, 37° C. (Example 202); details: SPR Biacore T200, 37° C., pH 7.4, antibody SEQ ID NO: 11/12 captured on protein A; Kd in molar
Procedure, shortened: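 Antibody captured on a protein A chip; ARM compounds injected at 100 μL/min (200 s association, 2000 s dissociation), 3-fold 5-point series from 200 nM, at 37 °C in HEPES pH 7.4 buffer with 0.005% P20 and 1% DMSO. Double-referenced sensorgrams fit 1:1 for kon, koff, Kd (koff/kon), residence time (1/koff); pKd averaged across runs.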

[2] = system: CCR2 expressing cells (CD11b+Ly6c+Hi) in peripheral blood; test: In vivo depletion assay, flow cytometry of peripheral blood (Example 201); set-up: species or system human CCR2 knock-in mice (C57 background); details: hCCR2 knock-in mice, IV 0.1 mpk compound + 10 mpk anti-cotinine antibody (SEQ ID NO: 13/14), peripheral blood at 48 hr
Procedure, shortened: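 Mice dosed with compound formulated in saline/DMSO/PBS, with anti-cotinine antibody (rabbit variable region, mouse IgG2a Fc) where required, pre-incubated 30 min at room temperature. Terminal peripheral blood RBC-lysed, Fc-blocked, stained for CD45, CD3, CD11b, Ly6C, human CCR2 and 7AAD; percent depletion of CD11b+Ly6c+Hi cells determined by flow cytometry.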

| SMILES | pKd of Antibody for ARM Compound of Formula (I) [1] | % Depletion of CCR2 expressing cells [2] |
| --- | --- | --- |
| CC(C)N(C)[C@@H]1CC[C@H](N2CC[C@H](Nc3ncnc4ccc(C(F)(F)F)cc34)C2=O)[C@H](NC(=O)[C@H]2CC[C@H](NC(=O)CCCO[C@H]3CC[C@H](OCCNC(=O)[C@H]4CC(=O)N(C)[C@@H]4c4cccnc4)CC3)CC2)C1 [Example 1, (2S,3S)-N-(2-(((1R,4S)-4-(4-(((1R,4R)-4-(((1R,2S,5R)-5-(Isopropyl(methyl)amino)-2-((S)-2-oxo-3-((6-(trifluoromethyl)quinazolin-4-yl)amino)pyrrolidin-1-yl)cyclohexyl)carbamoyl)cyclohexyl)amino)-4-oxobutoxy)cyclohexyl)oxy)ethyl)-1-methyl-5-oxo-2-(pyridin-3-yl)pyrrolidine-3-carboxamide] | 9.654 | 88.5% |
| CC(C)N(C)[C@@H]1CC[C@H](N2CC[C@H](Nc3ncnc4ccc(C(F)(F)F)cc34)C2=O)[C@H](NC(=O)[C@H]2CC[C@@H](NC(=O)CCCO[C@H]3CC[C@H](OCCNC(=O)[C@H]4CC(=O)N(C)[C@@H]4c4cccnc4)CC3)CC2)C1 [Example 5, (2S,3S)-N-(2-(((1R,4S)-4-(4-(((1S,4S)-4-(((1R,2S,5R)-5-(Isopropyl(methyl)amino)-2-((S)-2-oxo-3-((6-(trifluoromethyl)quinazolin-4-yl)amino)pyrrolidin-1-yl)cyclohexyl)carbamoyl)cyclohexyl)amino)-4-oxobutoxy)cyclohexyl)oxy)ethyl)-1-methyl-5-oxo-2-(pyridin-3-yl)pyrrolidine-3-carboxamide] | 9.19 | 91.05% |
| CC(C)N(C)[C@@H]1CC[C@H](N2CC[C@H](Nc3ncnc4ccc(C(F)(F)F)cc34)C2=O)[C@H](NC(=O)CCOCCNC(=O)CCCO[C@H]2CC[C@H](OCCNC(=O)[C@H]3CC(=O)N(C)[C@@H]3c3cccnc3)CC2)C1 [Example 7, (2S,3S)-N-(2-(((1r,4S)-4-(4-((2-(3-(((1R,2S,5R)-5-(Isopropyl(methyl)amino)-2-((S)-2-oxo-3-((6-(trifluoromethyl)quinazolin-4-yl)amino)pyrrolidin-1-yl)cyclohexyl)amino)-3-oxopropoxy)ethyl)amino)-4-oxobutoxy)cyclohexyl)oxy)ethyl)-1-methyl-5-oxo-2-(pyridin-3-yl)pyrrolidine-3-carboxamide] | 9.2515 | 47% |
| CN1C(=O)C[C@H](C(=O)NCCO[C@H]2CC[C@H](OCCCC(=O)N[C@H]3CC[C@H](C(=O)N[C@@H]4C[C@H](NC(C)(C)C)CC[C@@H]4N4CC[C@H](Nc5ncnc6ccc(C(F)(F)F)cc56)C4=O)CC3)CC2)[C@H]1c1cccnc1 [Example 10, (2S,3S)-N-(2-(((1R,4S)-4-(4-(((1R,4R)-4-(((1R,2S,5R)-5-(tert-Butylamino)-2-((S)-2-oxo-3-((6-(trifluoromethyl)quinazolin-4-yl)amino)pyrrolidin-1-yl)cyclohexyl)carbamoyl)cyclohexyl)amino)-4-oxobutoxy)cyclohexyl)oxy)ethyl)-1-methyl-5-oxo-2-(pyridin-3-yl)pyrrolidine-3-carboxamide] | 9.199 | 94.9% |
| CC(C)N(C)[C@@H]1CC[C@H](N2CC[C@H](Nc3ncnc4ccc(C(F)(F)F)cc34)C2=O)[C@H](NC(=O)[C@H]2CC[C@@H](NC(=O)CCOCCOCCNC(=O)CCNC(=O)[C@H]3CC(=O)N(C)[C@@H]3c3cccnc3)CC2)C1 [Example 16, (2S,3S)-N-(3-((2-(2-(3-(((1S,4s)-4-(((1R,2S,5R)-5-(Isopropyl(methyl)amino)-2-((S)-2-oxo-3-((6-(trifluoromethyl)quinazolin-4-yl)amino)pyrrolidin-1-yl)cyclohexyl)carbamoyl)cyclohexyl)amino)-3-oxopropoxy)ethoxy)ethyl)amino)-3-oxopropyl)-1-methyl-5-oxo-2-(pyridin-3-yl)pyrrolidine-3-carboxamide] | 9.287 | 74% |
| CC(C)N(C)[C@@H]1CC[C@H](N2CC[C@H](Nc3ncnc4ccc(C(F)(F)F)cc34)C2=O)[C@H](NC(=O)[C@H]2CC[C@@H](NC(=O)CCCC(=O)NCCCOCCCNC(=O)[C@H]3CC(=O)N(C)[C@@H]3c3cccnc3)CC2)C1 [Example 18, N^1-((1S,4s)-4-(((1R,2S,5R)-5-(Isopropyl(methyl)amino)-2-((S)-2-oxo-3-((6-(trifluoromethyl)quinazolin-4-yl)amino)pyrrolidin-1-yl)cyclohexyl)carbamoyl)cyclohexyl)-N^5-(3-(3-((2S,3S)-1-methyl-5-oxo-2-(pyridin-3-yl)pyrrolidine-3-carboxamido)propoxy)propyl)glutaramide] | 9.0895 | 88% |
| CC(C)N(C)[C@@H]1CC[C@H](N2CC[C@H](Nc3ncnc4ccc(C(F)(F)F)cc34)C2=O)[C@H](NC(=O)[C@H]2CC[C@H](NC(=O)CCCC(=O)NCCCOCCCNC(=O)[C@H]3CC(=O)N(C)[C@@H]3c3cccnc3)CC2)C1 [Example 19, N1-((1R,4r)-4-(((1R,2S,5R)-5-(Isopropyl(methyl)amino)-2-((S)-2-oxo-3-((6-(trifluoromethyl)quinazolin-4-yl)amino)pyrrolidin-1-yl)cyclohexyl)carbamoyl)cyclohexyl)-N5-(3-(3-((2S,3S)-1-methyl-5-oxo-2-(pyridin-3-yl)pyrrolidine-3-carboxamido)propoxy)propyl)glutaramide] | 9.19 | 59% |
| CN1C(=O)C[C@H](C(=O)NCCOCCOCCOCCC(=O)N[C@H]2CC[C@@H](C(=O)N[C@@H]3C[C@H](NC(C)(C)C)CC[C@@H]3N3CC[C@H](Nc4ncnc5ccc(C(F)(F)F)cc45)C3=O)CC2)[C@H]1c1cccnc1 [Example 23, (2S,3S)-N-(2-(2-(2-(3-(((1S,4s)-4-(((1R,2S,5R)-5-(tert-Butylamino)-2-((S)-2-oxo-3-((6-(trifluoromethyl)quinazolin-4-yl)amino)pyrrolidin-1-yl)cyclohexyl)carbamoyl)cyclohexyl)amino)-3-oxopropoxy)ethoxy)ethoxy)ethyl)-1-methyl-5-oxo-2-(pyridin-3-yl)pyrrolidine-3-carboxamide] | 9.2166 | 90.7% |
| CC(C)N(C)[C@@H]1CC[C@H](N2CC[C@H](Nc3ncnc4ccc(C(F)(F)F)cc34)C2=O)[C@H](NC(=O)[C@H]2C[C@@H](NC(=O)CCOCCOCCOCCNC(=O)[C@H]3CC(=O)N(C)[C@@H]3c3cccnc3)C2)C1 [Example 24, (2S,3S)-N-(2-(2-(2-(3-(((1S,3s)-3-(((1R,2S,5R)-5-(Isopropyl(methyl)amino)-2-((S)-2-oxo-3-((6-(trifluoromethyl)quinazolin-4-yl)amino)pyrrolidin-1-yl)cyclohexyl)carbamoyl)cyclobutyl)amino)-3-oxopropoxy)ethoxy)ethoxy)ethyl)-1-methyl-5-oxo-2-(pyridin-3-yl)pyrrolidine-3-carboxamide] | 9.4425 | 89.47% |
| CC(C)N(C)[C@@H]1CC[C@H](N2CC[C@H](Nc3ncnc4ccc(C(F)(F)F)cc34)C2=O)[C@H](NC(=O)[C@H]2CC[C@@H](NC(=O)CCOCCOCCOCCNC(=O)[C@H]3CC(=O)N(C)[C@@H]3c3cccnc3)CC2)C1 [Example 28, (2S,3S)-N-(2-(2-(2-(3-(((1S,4s)-4-(((1R,2S,5R)-5-(Isopropyl(methyl)amino)-2-((S)-2-oxo-3-((6-(trifluoromethyl)quinazolin-4-yl)amino)pyrrolidin-1-yl)cyclohexyl)carbamoyl)cyclohexyl)amino)-3-oxopropoxy)ethoxy)ethoxy)ethyl)-1-methyl-5-oxo-2-(pyridin-3-yl)pyrrolidine-3-carboxamide] | 9.273 | 87.1% |
| CC(C)N(C)[C@@H]1CC[C@H](N2CC[C@H](Nc3ncnc4ccc(C(F)(F)F)cc34)C2=O)[C@H](NC(=O)[C@H]2CC[C@H](NC(=O)CCOCCOCCOCCNC(=O)[C@H]3CC(=O)N(C)[C@@H]3c3cccnc3)CC2)C1 [Example 30, (2S,3S)-N-(2-(2-(2-(3-(((1R,4r)-4-(((1R,2S,5R)-5-(Isopropyl(methyl)amino)-2-((S)-2-oxo-3-((6-(trifluoromethyl)quinazolin-4-yl)amino)pyrrolidin-1-yl)cyclohexyl)carbamoyl)cyclohexyl)amino)-3-oxopropoxy)ethoxy)ethoxy)ethyl)-1-methyl-5-oxo-2-(pyridin-3-yl)pyrrolidine-3-carboxamide] | 9.3155 | 34.88% |
| CCN1C(=O)C[C@H](C(=O)NCCOCCOCCOCCC(=O)N[C@H]2CC[C@@H](C(=O)N[C@@H]3C[C@H](N(C)C(C)C)CC[C@@H]3N3CC[C@H](Nc4ncnc5ccc(C(F)(F)F)cc45)C3=O)CC2)[C@H]1c1cccnc1 [Example 34, (2S,3S)-1-ethyl-N-(2-(2-(2-(3-((cis-4-(((1R,2S,5R)-5-(isopropyl(methyl)amino)-2-((S)-2-oxo-3-((6-(trifluoromethyl)quinazolin-4-yl)amino)pyrrolidin-1-yl)cyclohexyl)carbamoyl)cyclohexyl)amino)-3-oxopropoxy)ethoxy)ethoxy)ethyl)-5-oxo-2-(pyridin-3-yl)pyrrolidine-3-carboxamide] | 9.933 | 95% |
